IC50, Activity and inhibition data for 13 compounds are collected here from ChEMBL document CHEMBL5523710 (Eur J Med Chem, 2024).

For test [1], the system named is Jurkat. Put plainly: Cytotoxicity against human Jurkat cells measured for 72 hrs by celltiter-glo assay.
The test system of test [2] is HAL-01. Put plainly: Cytotoxicity against human HAL-01 cells measured for 72 hrs by celltiter-glo assay. Particulars: HAL-01, 72 h. For orientation: ATP-based viability assays read luminescence as a measure of living cells.
Test [3] has as its system HL-60. The test is described as follows: Cytotoxicity against human HL-60 cells measured for 72 hrs by celltiter-glo assay. Particulars: HL-60, 72 h.
The test system of test [4] is Jurkat. The test is described as follows: Synergistic cytotoxicity against human Jurkat cells measured after 72 hrs in presence of decitabine by celltiter-glo assay. The class given is functional, cell-based.
Test [5] deals with HAL-01. Put plainly: Synergistic cytotoxicity against human HAL-01 cells measured after 72 hrs in presence of decitabine by celltiter-glo assay. The class given is functional, cell-based.
The target of test [6] is Histone deacetylase 2 (Homo sapiens, UniProt Q92769). Put plainly: biochemical. The class given is cell-based, Sf9.
Chain of Histone deacetylase 2 (Q92769 whole entry, the tested form may be a part): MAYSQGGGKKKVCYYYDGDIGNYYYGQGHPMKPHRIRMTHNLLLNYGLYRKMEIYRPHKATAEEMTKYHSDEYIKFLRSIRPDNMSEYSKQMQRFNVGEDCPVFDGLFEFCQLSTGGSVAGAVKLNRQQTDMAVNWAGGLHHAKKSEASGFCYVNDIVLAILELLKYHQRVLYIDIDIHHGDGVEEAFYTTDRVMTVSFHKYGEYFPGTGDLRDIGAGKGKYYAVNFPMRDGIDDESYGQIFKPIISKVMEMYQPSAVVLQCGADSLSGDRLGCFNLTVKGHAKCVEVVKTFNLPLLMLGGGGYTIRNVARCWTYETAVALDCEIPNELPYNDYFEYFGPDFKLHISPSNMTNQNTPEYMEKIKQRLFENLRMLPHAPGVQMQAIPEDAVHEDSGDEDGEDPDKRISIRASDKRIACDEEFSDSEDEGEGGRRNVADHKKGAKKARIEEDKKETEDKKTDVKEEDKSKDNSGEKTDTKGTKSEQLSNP
Description: Inhibition of C-terminal FLAG-tagged human recombinant HDAC2 (1 to 488 residues) expressed in Sf9 insect cells using ZMAL-(Z-Lys(Ac)-AMC as substrate measured for 90 mins by microplate reader analysis
The target of test [7] is Histone deacetylase 3/Nuclear receptor corepressor 2 (HDAC3/NCoR2) (Homo sapiens, UniProt O15379). The test is described as follows: Inhibition of C-terminal his-tagged human recombinant HDAC3 (1 to 428 residues)/N-terminal GST-tagged human recombinant NCOR2 (395 to 489 residues) expressed in Sf9 insect cells using ZMAL-(Z-Lys(Ac)-AMC as substrate measured for 90 mins by microplate reader analysis.
Chain of Histone deacetylase 3/Nuclear receptor corepressor 2 (HDAC3/NCoR2) (O15379 whole entry, the tested form may be a part): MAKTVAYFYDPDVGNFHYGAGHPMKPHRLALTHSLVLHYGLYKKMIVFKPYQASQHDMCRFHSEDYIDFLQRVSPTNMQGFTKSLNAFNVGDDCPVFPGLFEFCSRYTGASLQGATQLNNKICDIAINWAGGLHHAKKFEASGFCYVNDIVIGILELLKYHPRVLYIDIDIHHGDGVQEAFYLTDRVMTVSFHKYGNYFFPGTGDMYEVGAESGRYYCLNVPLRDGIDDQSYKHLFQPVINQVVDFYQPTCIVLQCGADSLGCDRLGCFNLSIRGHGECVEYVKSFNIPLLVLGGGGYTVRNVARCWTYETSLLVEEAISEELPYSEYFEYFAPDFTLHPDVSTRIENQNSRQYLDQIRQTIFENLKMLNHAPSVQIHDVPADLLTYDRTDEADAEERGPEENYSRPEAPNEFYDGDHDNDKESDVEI
Chain of Histone deacetylase 3/Nuclear receptor corepressor 2 (HDAC3/NCoR2) (Q9Y618 whole entry, further chain, the tested form may be a part): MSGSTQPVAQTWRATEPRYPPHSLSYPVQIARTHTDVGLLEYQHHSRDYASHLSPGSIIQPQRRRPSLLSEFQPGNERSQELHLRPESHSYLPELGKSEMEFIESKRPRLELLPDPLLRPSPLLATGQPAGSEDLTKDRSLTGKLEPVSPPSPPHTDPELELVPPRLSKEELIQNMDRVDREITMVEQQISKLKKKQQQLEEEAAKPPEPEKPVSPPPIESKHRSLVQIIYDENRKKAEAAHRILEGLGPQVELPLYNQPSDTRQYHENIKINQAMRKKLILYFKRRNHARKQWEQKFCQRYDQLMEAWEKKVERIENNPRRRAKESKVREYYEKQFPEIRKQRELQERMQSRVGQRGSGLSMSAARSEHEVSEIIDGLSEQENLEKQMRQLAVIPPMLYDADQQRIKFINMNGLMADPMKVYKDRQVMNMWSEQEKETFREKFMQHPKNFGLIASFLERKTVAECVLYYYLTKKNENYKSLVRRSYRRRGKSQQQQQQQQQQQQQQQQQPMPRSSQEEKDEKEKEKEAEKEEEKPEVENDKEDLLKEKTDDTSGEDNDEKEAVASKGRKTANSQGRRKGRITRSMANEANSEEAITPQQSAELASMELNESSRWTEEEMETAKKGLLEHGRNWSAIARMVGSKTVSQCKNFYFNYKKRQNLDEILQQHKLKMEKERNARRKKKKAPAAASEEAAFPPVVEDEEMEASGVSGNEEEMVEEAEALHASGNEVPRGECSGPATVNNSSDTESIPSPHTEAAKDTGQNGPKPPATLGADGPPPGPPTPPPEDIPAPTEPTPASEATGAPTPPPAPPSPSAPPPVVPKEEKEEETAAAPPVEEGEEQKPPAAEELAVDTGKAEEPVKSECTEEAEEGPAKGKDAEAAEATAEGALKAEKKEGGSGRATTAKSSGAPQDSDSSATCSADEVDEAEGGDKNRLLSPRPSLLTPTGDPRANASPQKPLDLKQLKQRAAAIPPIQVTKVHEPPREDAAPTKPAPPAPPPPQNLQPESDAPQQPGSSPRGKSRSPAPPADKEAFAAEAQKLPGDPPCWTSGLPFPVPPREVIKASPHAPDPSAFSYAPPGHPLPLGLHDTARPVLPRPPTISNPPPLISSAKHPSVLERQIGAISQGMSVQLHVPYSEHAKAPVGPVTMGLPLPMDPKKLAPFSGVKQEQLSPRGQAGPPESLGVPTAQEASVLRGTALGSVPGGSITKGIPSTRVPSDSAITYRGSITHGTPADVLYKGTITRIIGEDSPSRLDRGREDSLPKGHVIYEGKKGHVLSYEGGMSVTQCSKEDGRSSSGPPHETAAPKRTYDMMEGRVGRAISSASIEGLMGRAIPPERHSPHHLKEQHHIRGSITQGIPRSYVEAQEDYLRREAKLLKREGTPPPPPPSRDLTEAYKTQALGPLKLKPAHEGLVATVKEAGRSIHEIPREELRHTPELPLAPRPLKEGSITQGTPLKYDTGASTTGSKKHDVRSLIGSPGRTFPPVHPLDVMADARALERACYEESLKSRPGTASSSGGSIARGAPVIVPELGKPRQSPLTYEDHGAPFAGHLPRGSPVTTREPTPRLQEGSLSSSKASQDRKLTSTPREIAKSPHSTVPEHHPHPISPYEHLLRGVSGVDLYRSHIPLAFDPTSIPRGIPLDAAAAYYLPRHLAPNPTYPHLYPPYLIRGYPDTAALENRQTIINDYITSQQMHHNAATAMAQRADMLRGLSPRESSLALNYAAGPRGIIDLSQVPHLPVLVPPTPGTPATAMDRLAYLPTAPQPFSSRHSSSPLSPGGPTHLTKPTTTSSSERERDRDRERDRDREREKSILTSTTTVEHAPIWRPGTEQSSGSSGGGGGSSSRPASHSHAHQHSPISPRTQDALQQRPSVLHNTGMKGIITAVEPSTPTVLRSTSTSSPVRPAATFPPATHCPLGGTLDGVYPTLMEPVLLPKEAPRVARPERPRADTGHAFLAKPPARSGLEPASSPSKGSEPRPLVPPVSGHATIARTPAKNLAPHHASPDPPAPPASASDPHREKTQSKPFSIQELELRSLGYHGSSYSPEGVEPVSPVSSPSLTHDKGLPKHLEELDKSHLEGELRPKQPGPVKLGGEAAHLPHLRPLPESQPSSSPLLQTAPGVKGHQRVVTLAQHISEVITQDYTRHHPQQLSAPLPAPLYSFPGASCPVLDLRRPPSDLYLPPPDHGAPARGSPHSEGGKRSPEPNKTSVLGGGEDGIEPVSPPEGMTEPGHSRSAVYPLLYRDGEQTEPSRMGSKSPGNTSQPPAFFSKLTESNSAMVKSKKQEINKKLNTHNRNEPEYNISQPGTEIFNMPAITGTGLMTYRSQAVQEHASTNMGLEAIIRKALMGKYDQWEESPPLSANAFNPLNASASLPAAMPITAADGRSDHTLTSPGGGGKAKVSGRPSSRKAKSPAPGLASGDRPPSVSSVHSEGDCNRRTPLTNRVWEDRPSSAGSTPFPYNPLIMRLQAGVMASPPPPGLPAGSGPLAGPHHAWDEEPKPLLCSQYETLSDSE

Test [8] has as its target Histone deacetylase 1 (Homo sapiens, UniProt Q13547). Put plainly: Inhibition of C-terminal his/FLAG-tagged full length human recombinant HDAC1 (1 to 482 residues) expressed in Sf9 insect cells using ZMAL-(Z-Lys(Ac)-AMC as substrate measured for 90 mins by microplate reader analysis.
The subject of test [9] is HL-60. The test is described as follows: Induction of apoptosis in human HL-60 cells assessed as increase in dead cells at 1 to 5 uM measured for 48 hrs by Annexin/PI staining based analysis. The class given is functional, cell-based. Particulars: dose 1-5 µM.
Test [10] relates to HL-60. The test is described as follows: Induction of apoptosis in human HL-60 cells assessed as increase in early apoptotic cells at 1 to 5 uM measured for 48 hrs by Annexin/PI staining based analysis. Particulars: dose 1-5 µM. The class given is functional, cell-based.
Test [11] deals with MOLM-13. Put plainly: Synergistic cytotoxicity against human MOLM-13 cells measured after 72 hrs in presence of decitabine by celltiter-glo assay. The format is functional, cell-based.
Test [12] relates to HL-60. The note with it: Homo sapiens, dose 24.0 nM, time 24.0 hrs.
Test [13] deals with HL-60. The test is described as follows: Induction of apoptosis in human HL-60 cells assessed as viable cells at 1 to 5 uM measured for 48 hrs by Annexin/PI staining based analysis. The format is functional. The note with it: dose 1-5 µM.
Test [14] has as its system HL-60. Particulars: Homo sapiens, dose 24.0 nM, time 24.0 hrs. This is another data set of the same source.
For test [15], the system named is HL-60. The test is described as follows: Induction of apoptosis in human HL-60 cells assessed as increase in late apoptotic cells at 1 to 5 uM measured for 48 hrs by Annexin/PI staining based analysis. The class given is functional, cell-based. Particulars: dose 1-5 µM.

The structures appear in SMILES notation. Active and inactive are the calls of the source. The rule behind the calls is not given here.

Chain of Histone deacetylase 1 (Q13547 whole entry, the tested form may be a part): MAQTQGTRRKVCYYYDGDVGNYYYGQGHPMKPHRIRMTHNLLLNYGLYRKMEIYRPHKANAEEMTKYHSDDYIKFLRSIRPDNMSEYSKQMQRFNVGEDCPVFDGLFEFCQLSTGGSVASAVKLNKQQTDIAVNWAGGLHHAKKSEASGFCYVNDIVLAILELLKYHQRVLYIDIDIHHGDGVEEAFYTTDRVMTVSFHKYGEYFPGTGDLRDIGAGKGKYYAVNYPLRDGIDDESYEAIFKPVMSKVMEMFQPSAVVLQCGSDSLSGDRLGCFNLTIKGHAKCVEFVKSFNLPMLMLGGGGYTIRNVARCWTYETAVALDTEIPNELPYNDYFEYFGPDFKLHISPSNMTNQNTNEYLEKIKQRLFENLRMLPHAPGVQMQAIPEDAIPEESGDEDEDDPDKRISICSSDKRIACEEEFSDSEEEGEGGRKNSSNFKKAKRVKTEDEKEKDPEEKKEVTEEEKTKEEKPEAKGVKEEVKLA

What is called IC50 is the concentration that gives 50% inhibition. As for `Cc1ccccc1N(CC(=O)NC1CCCCC1)C(=O)Cc1ccc(C(=O)NO)cc1`, the IC50 in [1] was determined as 2520 nM; in [2], 1510 nM; in test [3], 2310 nM.

For the compound `Cc1cccc(N(CC(=O)NC2CCCCC2)C(=O)Cc2ccc(C(=O)NO)cc2)c1`, the IC50 was 2590 nM in test [1], 1890 nM in test [2] and 1750 nM in test [3].

With `Cc1ccccc1N(CC(=O)NC1CCCCC1)C(=O)Cc1ccc(C(=O)NO)cc1F`, the IC50 was found to be 3080 nM in test [1]; 2320 nM in test [2]; 2040 nM in [3]; 787 nM in [6]; 520 nM in test [7]. The result in test [4] and in [5] was inactive.

As for `O=C(CN(C(=O)Cc1ccc(C(=O)NO)cc1)c1ccccc1)NCc1ccccc1`, the IC50 in test [1] is 2290 nM; in [2] it was 2150 nM; in test [8], 283 nM; in test [3], 2310 nM.

A word on the inhibition: it is the percentage by which the read-out fell short of the control. Consider `Cc1ccc(N(CC(=O)NC2CCCCC2)C(=O)Cc2ccc(C(=O)NO)cc2)cc1`, for which the result in [9], in test [10], in test [11], in test [5] and in test [15] was Active. For the same compound, the IC50 amounted to 410 nM in [1]; 230 nM in test [2]; 360 nM in [3]; 112 nM in [6]; 42 nM in test [7]. Also, in test [12], the inhibition entry is “Active”. For the same compound, the Activity in test [13] is recorded as 50%. In [14], this compound returned an inhibition of 2.67%.

Regarding `CC(C)(C)NC(=O)CN(C(=O)Cc1ccc(C(=O)NO)cc1)c1ccccc1`, the IC50 in test [1] was 8310 nM; in [2] it was 4910 nM; in test [3], 5990 nM.

With `CCc1ccccc1N(CC(=O)NC1CCCCC1)C(=O)Cc1ccc(C(=O)NO)cc1F`, the values for the IC50 in test [1], in test [2] and in [3] were 3210 nM, 1440 nM and 1510 nM, respectively.

Consider `CCc1ccccc1N(CC(=O)NC1CCCCC1)C(=O)Cc1ccc(C(=O)NO)cc1`, for which the IC50 in test [1] was determined as 2280 nM; in test [2] it was 1430 nM; in test [3], 1340 nM.

On to `O=C(CN(C(=O)Cc1ccc(C(=O)NO)cc1F)c1ccccc1)NC1CCCCC1`, for which the IC50 turned out to be 2420 nM in test [1], 2080 nM in test [2] and 1340 nM in [3].

As to `CCCCNC(=O)CN(C(=O)Cc1ccc(C(=O)NO)cc1)c1ccccc1`, the 50% inhibitory concentration (IC50) in test [1] came to 4030 nM; in test [2], 3120 nM; in test [3], 2680 nM.

`O=C(CN(C(=O)Cc1ccc(C(=O)NO)cc1)c1ccccc1C(F)(F)F)NC1CCCCC1`: the IC50 in [1] was found to be 4580 nM; in [2], 3030 nM; in [3] it was 2090 nM.

As for `O=C(CN(C(=O)Cc1ccc(C(=O)NO)cc1)c1ccccc1)NC1CCCCC1`, the results for the IC50 in test [1], in test [2] and in test [3] were 2540 nM, 2020 nM and 1830 nM, respectively.

Take `O=C(CN(C(=O)Cc1ccc(C(=O)NO)cc1F)c1ccccc1C(F)(F)F)NC1CCCCC1`: the figures for the IC50 in test [1], in test [2] and in test [3] were 2280 nM, 1790 nM and 1610 nM, respectively.
